Test results from patent publication US10533185B2, “Method for producing polyploidized megakaryocyte and platelets” (The University of Tokyo, priority 2011, dated 2020).

What was measured:
Type in all cases: cell-based, human
[1] = system: iMKPC-type II cells; assay: Cytokine dependence and surface markers of iMKPC-type II; conditions: for proliferation of iMKPC-type II cells: SCF 50 ng/ml, TPO 50 ng/ml, 39° C., 21 days, Dox 0.5 μg/ml
Description: On 10T1/2 feeder cells, 2×10^5 iMKPC-type II cells were seeded, followed by culturing in the presence of 0.5 μg/ml of Dox at 39° C. for 21 days under the conditions of cytokines, that is, SCF (50 ng/ml), TPO (50 ng/ml), and EPO (6 U/ml).
On Day 21 after addition of cytokine, the cells were analyzed with a flow cytometer after staining with a CD41 antibody, a CD42b body, and a GPA antibody.

[2] = system: iMKPC-type I cells; assay: Cytokine dependence of iMKPC-type I proliferation; conditions: SCF 50 ng/ml, TPO 50 ng/ml, 37° C., 14 days, 10T1/2 feeder cells
Description: The cytokine dependence of iMKPC-type I was studied by seeding 2×10^5 iMKPC-type I cells on 10T1/2 feeder cells and culturing them for 14 days at 37° C. under the conditions shown in FIG. 1A in the presence of 2 uM of β-estradiol while using the following cytokines: SCF (50 ng/ml), TPO (50 ng/ml), and EPO (6 U/ml). A population in which proliferation was confirmed on Day 4 and Day 11 was counted for cell number, and 2×10^5 cells were replated, while the medium of the other populations was changed. The number of cells was counted on Day 8 and Day 14 and 2×10^5 cells were replated. At the same time, on Day 8, some of the cells were analyzed with a flow cytometer after staining with a CD41 antibody, a CD42b antibody, and a GPA antibody.

[3] = system: megakaryocytes before polyploidization derived from ES cells; assay: Ploidy assay: FACS after Hoechst and anti-CD41a staining; conditions: for number of cells with 8N or greater: 10 μg/ml
Description: After introduction of MYC and MBI1 genes, the resulting megakaryocytes (about 10^5) were cultured for about 30 days in the absence of doxycycline and presence of estradiol under the culturing conditions of 37° C. and presence of 5% CO2 to proliferate them to about 10^11. Culturing was continued further while changing the condition to the presence of doxycycline and absence of estradiol in order to suppress the expression of the MYC gene and the BMI1 gene in the thus proliferated megakaryocytic cell line and adding an ROCK inhibitor (Y27632; product of Wako Pure Chemicals) to the culture medium to give a concentration of 10 μM in order to determine the influence of Y27632 on polyploidization. On Day 7 after culturing was started while adding Y27632 to the culture medium, the degree of polyploidization was studied using FACS (FIG. 5).
The degree of polyploidization was studied (ploidy assay) by suppressing expression of MYC/BMI1 in the presence of 10 μM of Y27632 while inducing […] of BCL-XL, and culturing the resulting cells for 7 days.
Influence on polyploidization was studied by further treating the cells, which was subjected to the treatment of 2-7-4, with valproic acid. After suppression of expression of MYC/BMI1, forced expression of BCL-XL, treatment with the ROCK inhibitor (10 μM), and suppression of expression of p53, valproic acid (final concentration: 0.5 mM) was added to the medium and culturing was conducted at 39° C. for 7 days.
After suppression of expression of MYC/BMI1, forced expression of BCL-XL, and treatment with blebbistatin (10 μg/ml), the resulting cells were cultured at 39° C. for 7 days.
(§1) Next, the degree of polyploidization when the blebbistatin treatment was used in combination with the other treatments was studied. The cells were subjected to blebbistatin treatment in addition to the above-mentioned treatments in Section 2-7-5 and influence of them on polyploidization was studied. After suppression of expression of MYC/BMI1, forced expression of BCL-XL, treatment with a ROCK inhibitor (10 μM), suppression of expression of p53, and treatment with valproic acid (0.5 mM), treatment with blebbistatin (10 μg/ml) was conducted and then, the resulting cells were cultured at 39° C. for 7 days. […] Induction to mature megakaryocytes was therefore confirmed (lower graph in FIG. 13).

[4] = system: megakaryocytes (CD41a+); assay: Growth curve and micrographs of cells treated with blebbistatin plus the other treatments; conditions: 10 μg/ml with the other treatments, after culturing for 7 days
Description: as §1

[5] = system: iMKPC-type II cells; assay: Platelet production from iMKPC-type II cells: flow cytometry for CD41/CD42b; conditions: 5 μM, 37° C., 3 days, with/without feeder cells and serum
Description: A platelet production efficiency was measured by using the following conditions in combination as shown in FIG. 17: use/non-use of feeder cells, use/non-use of Conditioned Medium, use of serum medium/use of serum-free medium, and administration/non-administration of blebbistatin.
Conditioned Medium was prepared by seeding 8×10^5 MMC-treated 10T1/2 cells on a 10-cm dish subjected to gelatin coating, changing the medium with 10 ml of a differentiation medium (EBM) containing SCF (50 ng/ml) and TPO (50 ng/ml) and further containing 15% serum or not containing a serum on the next day (after adhesion of cells), recovering the medium and adding 10 ml of a new medium (containing SCF and TPO) 24 hours later, pooling three-day's Conditioned Medium, and filtering the medium through a 0.22-μm filter to remove the 10T1/2 cells. When the resulting medium was used for tests, SCF and TPO were added newly. […]
The platelets contained in the supernatant of the medium were analyzed with a flow cytometer after staining with an antibody CD41 and an antibody CD42b. […]
Comparison in the expression level of CD42b in CD41-positive platelets in each population (a ratio of average fluorescence intensity of each population to average fluorescence intensity of normal condition) is shown in FIG. 18. […]

[6] = system: iMKPC-type II cells; assay: Microscopic observation of polyploidization of iMKPC-type II; conditions: 5 μg/ml; c-MYC and BMI1 off, BCL-XL forced, p53 knocked down
Description: It was observed that by turning off the expression of c-MYC and BMI1, forcing expression of BCL-XL, and knocking down the p53 gene, the cells become increasingly polyploidized.

SCF: cytokine added to the culture medium (50 ng/ml)
proliferation of iMKPC-type II cells [1]: SCF had no influence on proliferation | proliferation of iMKPC-type I cells [2]: strongly depended on SCF

C[C@@H](N)[C@H]1CC[C@H](C(=O)Nc2ccncc2)CC1.Cl.Cl.O (relative stereo) [Y27632, (R)-(+)-trans-N-(4-pyridyl)-4-(1-aminoethyl)-cyclohexane carboxamide.2HCl.H2O]
number of cells with 4N (degree of polyploidization) ([3]; 10 μM, Day 7, MYC/BMI1 expression suppressed, compared with cells without inhibitor (vehicle)): increase in the number of cells with 4N

CCCC(CCC)C(=O)O [valproic acid]
degree of polyploidization ([3]; 0.5 mM, 39° C., 7 days, MYC/BMI1 suppressed, BCL-XL forced, ROCK inhibitor 10 μM, p53 suppressed, vs untreated control cells): promoted polyploidization

Cc1ccc2c(c1)C(=O)C1(O)CCN(c3ccccc3)C1=N2 (centres unmarked) [blebbistatin]
cell morphology (cytoplasm) [4]: hypertrophy of cytoplasm was observed | proliferation capacity [4]: slight deterioration in proliferation capacity | expression level of CD42b in CD41-positive platelets (ratio of average fluorescence intensity to normal condition) [5]: Influence of blebbistatin was not found | platelet production amount (ratio of number of CD41+ CD42b+ platelets to normal condition) [5]: No significant difference | polyploidization by microscopic observation [6]: polyploidized further | number of cells with 8N or greater ([3]; 39° C., 7 days, MYC/BMI1 suppressed, BCL-XL forced, ROCK inhibitor 10 μM, p53 suppressed, valproic acid 0.5 mM, vs control cells): greater | number of cells with 8N or greater ([3]; 39° C., 7 days, MYC/BMI1 suppressed, BCL-XL forced, vs cells without blebbistatin): greater

TPO: cytokine added to the culture medium (50 ng/ml)
expression of CD41a and CD42b ([1]; Day 21 after addition of cytokine, compared with the other populations): higher expression in CD41a and CD42b | proliferation of iMKPC-type II cells [1]: proliferation is promoted further | proliferation of iMKPC-type I cells [2]: TPO had no influence on their proliferation
